From patent publication US20150307520A1, “NOVEL HETEROARYL AND HETEROCYCLE COMPOUNDS, COMPOSITIONS AND METHODS THEREOF” (HUTCHISON MEDIPHARMA LIMITED, priority 2012, published 2015)

Tests used:
Format in all cases: biochemical
[1] = biological target: p110β/p85α (Homo sapiens, UniProt P42338); experiment: Transcreener KINASE Assay, kinase inhibition of p110β/p85α; details: for PI3Kβ IH % @ 1 uM: 1 uM test compound; for IC50: read-out: PI3Kβ IC50
Summary of the method: (§1)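 ADP formation read by far-red competitive FP immunoassay (60 min RT detection step) after an 80 min RT kinase reaction; substrate added as a 30 uM PIP2/10 uM ATP solution (not final).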

[2] = biological target: p110α/p85α (Homo sapiens, UniProt P42336); experiment: Transcreener KINASE Assay, kinase inhibition of p110α/p85α; details: 1 uM test compound
Procedure: PI3K kinases including p110α/p85α, p110δ/p85α and p110γ are purchased from Invitrogen, and p110β/p85α is from Millipore.
Primary screening data and IC50 values are measured using Transcreener™ KINASE Assay (Bellbrook, Catalog #3003-10K). […] It is a universal, homogenous, high throughput screening (HTS) technology using a far-red, competitive fluorescence polarization immunoassay based on the detection of ADP to monitor the activity of enzymes that catalyze group transfer reactions. Briefly, the Transcreener KINASE Assay is designed as a simple two-part, endpoint assay.
In the first step, the 25 ul kinase reaction is performed by preparing a reaction mixture containing 5 ul test compound (2% DMSO final concentration), 10 ul kinase, buffer (50 mM HEPES, 100 mM NaCl, 1 mM EGTA, 0.03% CHAPS, 3 mM MgCl2, and freshly supplemented 1 mM DTT), and 10 ul 30 uM PIP2/10 uM ATP. The plate is sealed and incubated for 80 min at room temperature. Next, 25 ul ADP detection mix is added per well. The plate is sealed again and incubated for 60 min at room temperature, and then measure fluorescence polarization by Tecan Infinite F500 Reader.
Data is analyzed and IC50s are generated using the add-in software for Microsoft Excel, Xlfit™ (version 2.0). IH %=(ADP amount under 2% DMSO-ADP amount under test compound)/ADP amount under 2% DMSO.

[3] = biological target: p110δ/p85α (Homo sapiens, UniProt O00329); experiment: Transcreener KINASE Assay, kinase inhibition of p110δ/p85α; details: for PI3Kδ IH % @ 1 uM: 1 uM test compound; for IC50: read-out: PI3Kδ IC50
Summary of the method: as §1

[4] = biological target: p110γ (Homo sapiens, UniProt P48736); experiment: Transcreener KINASE Assay, kinase inhibition of p110γ; details: for PI3Kγ IH % @ 1 uM: 1 uM test compound; for IC50: read-out: PI3Kγ IC50
Summary of the method: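 Recombinant PI3K isoform complexes were tested in a two-step endpoint ADP-detection assay. Kinase reaction ran 80 min at room temperature, followed by 60 min with ADP detection mix. Far-red competitive fluorescence polarization immunoassay read-out; IC50s fitted from the FP data.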

Chain of p110α/p85α (P42336 whole entry): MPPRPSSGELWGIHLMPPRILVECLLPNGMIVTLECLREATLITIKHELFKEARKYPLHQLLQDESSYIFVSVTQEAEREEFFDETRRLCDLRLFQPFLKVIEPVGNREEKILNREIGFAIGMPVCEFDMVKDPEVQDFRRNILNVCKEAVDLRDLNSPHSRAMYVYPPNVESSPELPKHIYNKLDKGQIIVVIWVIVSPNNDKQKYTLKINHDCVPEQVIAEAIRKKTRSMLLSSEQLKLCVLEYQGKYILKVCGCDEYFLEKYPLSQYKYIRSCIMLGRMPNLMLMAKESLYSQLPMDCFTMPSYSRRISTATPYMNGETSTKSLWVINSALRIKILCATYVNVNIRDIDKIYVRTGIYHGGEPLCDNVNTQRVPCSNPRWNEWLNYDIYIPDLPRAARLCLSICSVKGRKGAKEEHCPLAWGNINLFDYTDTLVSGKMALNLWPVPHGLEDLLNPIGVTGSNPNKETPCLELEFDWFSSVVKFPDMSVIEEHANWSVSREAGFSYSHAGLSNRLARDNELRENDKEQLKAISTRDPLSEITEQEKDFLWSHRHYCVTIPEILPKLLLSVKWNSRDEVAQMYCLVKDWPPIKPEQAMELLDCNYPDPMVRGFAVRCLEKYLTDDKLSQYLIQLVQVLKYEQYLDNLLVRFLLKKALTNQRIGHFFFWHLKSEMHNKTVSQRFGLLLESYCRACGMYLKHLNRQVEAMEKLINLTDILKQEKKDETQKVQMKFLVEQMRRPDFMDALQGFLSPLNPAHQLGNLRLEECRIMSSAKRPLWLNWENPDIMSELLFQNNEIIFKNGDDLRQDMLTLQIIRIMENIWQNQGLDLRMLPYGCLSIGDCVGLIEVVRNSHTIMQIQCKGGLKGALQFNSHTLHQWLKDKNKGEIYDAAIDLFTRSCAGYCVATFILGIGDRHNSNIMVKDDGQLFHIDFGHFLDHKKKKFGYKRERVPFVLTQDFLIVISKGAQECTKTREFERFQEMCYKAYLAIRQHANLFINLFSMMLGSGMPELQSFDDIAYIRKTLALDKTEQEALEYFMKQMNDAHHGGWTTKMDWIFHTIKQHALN
Chain of p110α/p85α (P27986 whole entry partner): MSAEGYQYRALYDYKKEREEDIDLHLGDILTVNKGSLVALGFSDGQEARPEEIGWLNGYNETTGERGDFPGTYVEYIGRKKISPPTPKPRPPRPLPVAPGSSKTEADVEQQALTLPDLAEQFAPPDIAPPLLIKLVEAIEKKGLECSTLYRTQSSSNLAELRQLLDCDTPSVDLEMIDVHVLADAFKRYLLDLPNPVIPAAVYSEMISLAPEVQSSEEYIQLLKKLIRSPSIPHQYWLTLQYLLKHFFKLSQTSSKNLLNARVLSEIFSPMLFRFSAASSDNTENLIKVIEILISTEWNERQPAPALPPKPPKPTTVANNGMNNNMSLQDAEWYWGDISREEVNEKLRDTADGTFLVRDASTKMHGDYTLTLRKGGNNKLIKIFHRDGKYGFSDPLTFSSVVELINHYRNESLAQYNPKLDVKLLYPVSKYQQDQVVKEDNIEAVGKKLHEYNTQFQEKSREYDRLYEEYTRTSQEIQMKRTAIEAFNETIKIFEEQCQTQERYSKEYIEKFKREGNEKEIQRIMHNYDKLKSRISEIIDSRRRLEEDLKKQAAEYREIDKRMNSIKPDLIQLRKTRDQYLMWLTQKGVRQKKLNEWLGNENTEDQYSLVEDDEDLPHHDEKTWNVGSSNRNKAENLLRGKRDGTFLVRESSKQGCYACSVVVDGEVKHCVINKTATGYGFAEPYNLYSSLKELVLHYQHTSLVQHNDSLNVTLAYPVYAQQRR
Chain of p110δ/p85α (O00329 whole entry): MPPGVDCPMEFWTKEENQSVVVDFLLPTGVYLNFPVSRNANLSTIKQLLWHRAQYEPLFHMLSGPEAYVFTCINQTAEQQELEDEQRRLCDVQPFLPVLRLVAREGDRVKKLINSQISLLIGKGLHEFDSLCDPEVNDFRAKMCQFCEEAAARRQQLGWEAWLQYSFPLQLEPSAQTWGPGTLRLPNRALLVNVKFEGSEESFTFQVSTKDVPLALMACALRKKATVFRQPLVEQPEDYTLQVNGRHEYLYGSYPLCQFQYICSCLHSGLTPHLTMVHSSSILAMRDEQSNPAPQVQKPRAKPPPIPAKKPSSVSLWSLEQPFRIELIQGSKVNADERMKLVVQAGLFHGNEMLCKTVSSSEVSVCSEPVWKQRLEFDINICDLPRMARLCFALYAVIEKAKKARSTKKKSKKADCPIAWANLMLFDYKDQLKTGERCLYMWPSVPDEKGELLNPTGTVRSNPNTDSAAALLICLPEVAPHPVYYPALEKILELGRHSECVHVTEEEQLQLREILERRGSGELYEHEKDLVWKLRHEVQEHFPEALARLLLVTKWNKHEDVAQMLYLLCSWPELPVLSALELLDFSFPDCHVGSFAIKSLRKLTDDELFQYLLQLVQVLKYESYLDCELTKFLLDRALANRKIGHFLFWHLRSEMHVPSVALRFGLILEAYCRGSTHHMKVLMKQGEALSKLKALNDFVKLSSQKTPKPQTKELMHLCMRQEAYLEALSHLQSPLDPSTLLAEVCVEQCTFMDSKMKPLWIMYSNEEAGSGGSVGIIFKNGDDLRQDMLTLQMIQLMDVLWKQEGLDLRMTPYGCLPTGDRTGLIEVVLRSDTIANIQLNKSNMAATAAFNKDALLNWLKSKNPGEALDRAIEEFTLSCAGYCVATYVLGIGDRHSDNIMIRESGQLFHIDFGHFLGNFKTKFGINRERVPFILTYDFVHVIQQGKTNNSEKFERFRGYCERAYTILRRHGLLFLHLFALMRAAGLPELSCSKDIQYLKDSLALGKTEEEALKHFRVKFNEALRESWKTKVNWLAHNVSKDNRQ
Chain of p110δ/p85α (P27986 whole entry partner): as the sequence (P27986 whole entry partner) above
Chain of p110γ (P48736 whole entry, canonical isoform): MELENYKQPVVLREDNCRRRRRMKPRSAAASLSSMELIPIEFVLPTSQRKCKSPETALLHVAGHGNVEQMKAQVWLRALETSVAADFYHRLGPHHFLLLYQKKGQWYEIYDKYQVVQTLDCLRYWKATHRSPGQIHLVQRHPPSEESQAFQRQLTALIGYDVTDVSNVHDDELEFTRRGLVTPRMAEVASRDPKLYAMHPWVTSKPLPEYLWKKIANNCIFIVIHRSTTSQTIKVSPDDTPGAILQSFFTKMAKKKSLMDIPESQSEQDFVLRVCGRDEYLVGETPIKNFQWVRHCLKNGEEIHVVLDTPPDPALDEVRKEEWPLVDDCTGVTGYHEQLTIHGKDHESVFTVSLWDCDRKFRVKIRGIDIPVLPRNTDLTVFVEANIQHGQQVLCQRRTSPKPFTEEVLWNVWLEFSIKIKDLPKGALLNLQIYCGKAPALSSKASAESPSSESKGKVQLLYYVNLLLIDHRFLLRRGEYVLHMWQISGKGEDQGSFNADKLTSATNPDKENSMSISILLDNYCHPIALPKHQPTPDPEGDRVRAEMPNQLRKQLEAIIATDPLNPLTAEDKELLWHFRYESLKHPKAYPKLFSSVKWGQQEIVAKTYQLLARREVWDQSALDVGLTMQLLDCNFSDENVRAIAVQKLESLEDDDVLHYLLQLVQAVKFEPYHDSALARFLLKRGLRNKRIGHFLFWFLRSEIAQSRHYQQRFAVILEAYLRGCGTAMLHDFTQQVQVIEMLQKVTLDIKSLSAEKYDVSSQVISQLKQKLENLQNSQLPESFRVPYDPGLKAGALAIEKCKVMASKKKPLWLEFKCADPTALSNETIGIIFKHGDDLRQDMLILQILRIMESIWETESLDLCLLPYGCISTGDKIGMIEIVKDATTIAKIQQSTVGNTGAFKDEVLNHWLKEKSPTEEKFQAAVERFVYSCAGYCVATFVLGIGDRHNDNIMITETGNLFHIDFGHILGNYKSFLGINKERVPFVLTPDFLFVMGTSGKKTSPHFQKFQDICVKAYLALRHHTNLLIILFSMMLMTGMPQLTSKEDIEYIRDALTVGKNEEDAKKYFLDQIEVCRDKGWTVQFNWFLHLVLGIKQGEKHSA

## N#Cc1c[nH]c2ncnc(N3CC[C@H]3c3nn4cccc4c(=O)n3-c3ccccc3)c12 [Compound 6]
[1]
  PI3Kβ IH % @ 1 uM: 28.0%
[2]
  PI3Kα IH % @ 1 uM: −10.6%
[3]
  PI3Kδ IH % @ 1 uM: 91.5%
[4]
  PI3Kγ IH % @ 1 uM: 58.6%

## O=c1c2cccn2nc([C@@H]2CCN2c2ncnc3[nH]cnc23)n1-c1ccccc1 [Compound 7]
[1]
  PI3Kβ IH % @ 1 uM: 17.7%
[2]
  PI3Kα IH % @ 1 uM: −18.6%
[3]
  PI3Kδ IH % @ 1 uM: 50.4%
[4]
  PI3Kγ IH % @ 1 uM: 16.6%

## N#Cc1c[nH]c2ncnc(N3CCC[C@H]3c3nn4ccc(Cl)c4c(=O)n3-c3ccccc3)c12 [Compound 25]
[1]
  PI3Kβ IH % @ 1 uM: 93.7%
  IC50: 0.034 µM
[2]
  PI3Kα IH % @ 1 uM: 80.9%
[3]
  PI3Kδ IH % @ 1 uM: >100%
  IC50: 0.001 µM
[4]
  PI3Kγ IH % @ 1 uM: 98.6%

## O=c1c2c(Cl)ccn2nc([C@@H]2CCCN2c2ncnc3[nH]cnc23)n1-c1ccccc1 [Compound 26]
[1]
  PI3Kβ IH % @ 1 uM: 88.7%
  IC50: 0.091 µM
[2]
  PI3Kα IH % @ 1 uM: 20.3%
[3]
  PI3Kδ IH % @ 1 uM: >100%
  IC50: 0.002 µM
[4]
  PI3Kγ IH % @ 1 uM: 93.3%

## N#Cc1c[nH]c2ncnc(N3CC[C@H]3c3nn4ccc(Cl)c4c(=O)n3-c3ccccc3)c12 [Compound 28]
[1]
  PI3Kβ IH % @ 1 uM: 49.9%
[2]
  PI3Kα IH % @ 1 uM: −0.3%
[3]
  PI3Kδ IH % @ 1 uM: >100%
  IC50: 0.014 µM
[4]
  PI3Kγ IH % @ 1 uM: 92.2%
  IC50: 0.032 µM

## O=c1c2c(Cl)ccn2nc([C@@H]2CCN2c2ncnc3[nH]cnc23)n1-c1ccccc1 [Compound 29]
[1]
  PI3Kβ IH % @ 1 uM: 18.5%
[2]
  PI3Kα IH % @ 1 uM: −1.5%
[3]
  PI3Kδ IH % @ 1 uM: >100%
  IC50: 0.084 µM
[4]
  PI3Kγ IH % @ 1 uM: 72.5%

## Nc1ncnc(N2CC[C@H]2c2nn3ccc(Cl)c3c(=O)n2-c2ccccc2)c1Cl [Compound 30]
[1]
  PI3Kβ IH % @ 1 uM: 51.3%
[2]
  PI3Kα IH % @ 1 uM: −20.5%
[3]
  PI3Kδ IH % @ 1 uM: >100%
  IC50: 0.009 µM
[4]
  PI3Kγ IH % @ 1 uM: 74.1%
  IC50: 0.094 µM

## N#Cc1c(N)ncnc1N1CC[C@H]1c1nn2ccc(Cl)c2c(=O)n1-c1ccccc1 [Compound 31]
[1]
  PI3Kβ IH % @ 1 uM: 35.3%
[2]
  PI3Kα IH % @ 1 uM: −17.7%
[3]
  PI3Kδ IH % @ 1 uM: >100%
  IC50: 0.016 µM
[4]
  PI3Kγ IH % @ 1 uM: 81.5%
  IC50: 0.153 µM

## N#Cc1c(N)ncnc1N1CCC[C@H]1c1nn2ccc(Cl)c2c(=O)n1-c1ccccc1 [Compound 32]
[1]
  PI3Kβ IH % @ 1 uM: 96.7%
  IC50: 0.013 µM
[2]
  PI3Kα IH % @ 1 uM: 54.5%
[3]
  PI3Kδ IH % @ 1 uM: >100%
  IC50: 0.001 µM
[4]
  PI3Kγ IH % @ 1 uM: 94.8%
  IC50: 0.008 µM

## COc1cccc(-n2c([C@@H]3CCN3c3ncnc4[nH]cc(C#N)c34)nn3ccc(Cl)c3c2=O)c1 [Compound 34]
[1]
  PI3Kβ IH % @ 1 uM: 12.4%
[2]
  PI3Kα IH % @ 1 uM: −2.5%
[3]
  PI3Kδ IH % @ 1 uM: 96.8%
  IC50: 0.029 µM
[4]
  PI3Kγ IH % @ 1 uM: 84.6%
  IC50: 0.203 µM

## COc1cccc(-n2c([C@@H]3CCN3c3ncnc(N)c3C#N)nn3ccc(Cl)c3c2=O)c1 [Compound 35]
[1]
  PI3Kβ IH % @ 1 uM: 24.7%
[2]
  PI3Kα IH % @ 1 uM: −6.6%
[3]
  PI3Kδ IH % @ 1 uM: 94.1%
  IC50: 0.057 µM
[4]
  PI3Kγ IH % @ 1 uM: 61.2%

## COc1cccc(-n2c([C@@H]3CCCN3c3ncnc4[nH]cnc34)nn3ccc(Cl)c3c2=O)c1 [Compound 36]
[1]
  PI3Kβ IH % @ 1 uM: 60.9%
[2]
  PI3Kα IH % @ 1 uM: 6.4%
[3]
  PI3Kδ IH % @ 1 uM: 99.1%
[4]
  PI3Kγ IH % @ 1 uM: 90.8%
  IC50: 0.035 µM

## O=c1c2c(Cl)ccn2nc([C@@H]2CCCN2c2ncnc3[nH]cnc23)n1-c1cccc(F)c1 [Compound 38]
[1]
  PI3Kβ IH % @ 1 uM: 54.8%
[2]
  PI3Kα IH % @ 1 uM: −3.3%
[3]
  IC50: 0.003 µM
[4]
  PI3Kγ IH % @ 1 uM: 93.5%

## Cc1ccn2nc([C@@H]3CCCN3c3ncnc4[nH]cc(C#N)c34)n(-c3ccccc3)c(=O)c12 [Compound 42]
[1]
  PI3Kβ IH % @ 1 uM: 79.8%
  IC50: 0.186 µM
[2]
  PI3Kα IH % @ 1 uM: 71.8%
[3]
  PI3Kδ IH % @ 1 uM: >100%
[4]
  PI3Kγ IH % @ 1 uM: 91.2%
  IC50: 0.005 µM

## Cc1ccn2nc([C@@H]3CCCN3c3ncnc4[nH]cnc34)n(-c3ccccc3)c(=O)c12 [Compound 43]
[1]
  PI3Kβ IH % @ 1 uM: 66.0%
[2]
  PI3Kα IH % @ 1 uM: 35.1%
[3]
  PI3Kδ IH % @ 1 uM: >100%
  IC50: 0.002 µM
[4]
  PI3Kγ IH % @ 1 uM: 96.6%
  IC50: 0.019 µM
